Measurements from US20170101432A1, “CRYSTALLINE 3',5'-CYCLIC DIGUANYLIC ACID” (Yamasa Corporation, priority 2014, published 2017).

Experiment: Stability: storage at 50° C. in a desiccator containing saturated saline, HPLC purity measured
Assay type: physicochemical
Settings: for relative residual ratio: storage at 50° C., saturated saline desiccator
Procedure: Note that the high performance liquid chromatography method was performed under the following condition. Column: Hydrosphere C18 (product of YMC Co., Ltd.) Eluate: 0.1M TEA-P (pH 6.0) Detection method: detection by UV 260 nm The crystals of 3′,5′-cyclic diguanylic acid of the present invention and the co-crystals with cobalt and the co-crystals with magnesium of Reference Examples were stored at 50° C. in a desiccator containing saturated saline, and HPLC purity of each of them was measured on days 0, 7, 31, 84 and 167 after the start of storage. The result of measurement of HPLC purity (%) is shown in Table 5 below and relative residual ratios (%) on each day for measurement after the start of storage, taking the purity of day 0 of measurement as 100%, are shown in Table 6.

[1] = day 0, purity of day 0 taken as 100%
[2] = day 0 after the start of storage at 50° C. in a desiccator containing saturated saline
[3] = day 7, purity of day 0 taken as 100%
[4] = day 7 of storage at 50° C. in a desiccator containing saturated saline
[5] = day 31, purity of day 0 taken as 100%
[6] = day 31 of storage at 50° C. in a desiccator containing saturated saline
[7] = day 84, purity of day 0 taken as 100%
[8] = day 84 of storage at 50° C. in a desiccator containing saturated saline
[9] = day 167, purity of day 0 taken as 100%
[10] = day 167 of storage at 50° C. in a desiccator containing saturated saline

Row | Compound | decrease rate of HPLC purity (after storing at 50° C. for 167 days in a desiccator containing saturated saline) | relative residual ratio [1] | HPLC purity [2] | relative residual ratio [3] | HPLC purity [4] | relative residual ratio [5] | HPLC purity [6] | relative residual ratio [7] | HPLC purity [8] | relative residual ratio [9] | HPLC purity [10]
1 | Nc1nc2c(ncn2[C@@H]2O[C@@H]3COP(=O)(O)OC4C(O)[C@H](n5cnc6c(=O)[nH]c(N)nc65)O[C@@H]4COP(=O)(O)OC3C2O)c(=O)[nH]1 (stereo partly shown) [Present Invention, 3′,5′-cyclic diguanylic acid] | less than 1% | 100% | 99.0% | 100.1% | 99.1% | 99.6% | 98.6% | 99.9% | 98.9% | 100.0% | 98.9%
2 | Nc1nc2c(ncn2C2OC3COP(=O)(O)OC4C(COP(=O)(O)OC3C2O)OC(n2cnc3c(=O)[nH]c(N)nc32)C4O)c(=O)[nH]1 (stereo not shown) [Mg, 3′,5′-cyclic diguanylic acid] |  | 100% | 99.8% | 100% | 99.7% | 99.8% | 99.6% | 100.0% | 99.8% | 99.5% | 99.3%
3 | Nc1nc2c(ncn2C2OC3COP(=O)(O)OC4C(COP(=O)(O)OC3C2O)OC(n2cnc3c(=O)[nH]c(N)nc32)C4O)c(=O)[nH]1 (stereo not shown) [Co, 3′,5′-cyclic diguanylic acid] |  | 100% | 99.9% | 100% | 99.9% | 99.8% | 99.7% | 99.8% | 99.7% | 99.6% | 99.4%
